Assay results: publication PMC12539867, “Systematic identification of terpene synthases from sacred lotus (Nelumbo nucifera) and heterologous biosynthesis of the insecticidal and antimicrobial compound γ-eudesmol” (Horticulture Research, 2025)

What was measured:
[1] = test system: T1, NnTPS10; assay: steady-state kinetics, purified enzyme; type: biochemical, Nelumbo nucifera; settings: 25 °C, pH 7.5
T1 construct: TPS-a; 565 residues; codon-optimised; purified from E. coli for kinetics; S. cerevisiae JCR27 for mutants; N314, L530, V537; D461-Y537-D541 triad also printed

[2] = target: T2, NnTPS5 (Nelumbo nucifera, UniProt A0A822ZHR2); assay: yeast co-expression with GGPPS and NnTPS6 or NnTPS7, GC-MS of ent-kaurene; type: cell-based; settings: substrate formed in the cell
T2 construct: gene HUJ06_002290; codon-optimised; S. cerevisiae JCR27 with NnTPS6 or NnTPS7 and GGPPS
T2 sequence (A0A822ZHR2 41-812): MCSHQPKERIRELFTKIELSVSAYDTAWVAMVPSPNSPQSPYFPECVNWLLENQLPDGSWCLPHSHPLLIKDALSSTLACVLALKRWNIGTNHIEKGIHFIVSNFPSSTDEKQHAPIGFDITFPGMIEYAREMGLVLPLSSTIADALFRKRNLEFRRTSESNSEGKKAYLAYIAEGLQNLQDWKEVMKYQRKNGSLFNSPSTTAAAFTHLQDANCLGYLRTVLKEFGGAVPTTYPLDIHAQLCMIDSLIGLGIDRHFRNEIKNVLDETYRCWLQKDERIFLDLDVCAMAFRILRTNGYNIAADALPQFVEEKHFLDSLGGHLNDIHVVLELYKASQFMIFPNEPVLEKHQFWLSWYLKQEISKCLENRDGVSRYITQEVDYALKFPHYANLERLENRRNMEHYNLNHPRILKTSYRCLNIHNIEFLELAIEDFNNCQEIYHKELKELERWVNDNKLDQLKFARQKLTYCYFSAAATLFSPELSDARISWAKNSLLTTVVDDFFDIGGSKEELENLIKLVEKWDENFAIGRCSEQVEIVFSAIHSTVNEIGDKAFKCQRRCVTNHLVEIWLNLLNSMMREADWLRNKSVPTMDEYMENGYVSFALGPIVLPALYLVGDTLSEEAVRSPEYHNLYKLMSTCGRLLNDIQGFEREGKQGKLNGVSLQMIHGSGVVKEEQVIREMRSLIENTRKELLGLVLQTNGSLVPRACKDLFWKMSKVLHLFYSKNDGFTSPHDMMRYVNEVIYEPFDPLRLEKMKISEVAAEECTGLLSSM

SMILES	Km [1]	yeast co-expression with GGPPS and NnTPS6 or NnTPS7, GC-MS of ent-kaurene [2]
CC(C)=CCC/C(C)=C/CC/C(C)=C/COP(=O)(O)OP(=O)(O)O [FPP]	16.7 µM	–
C=C1CC[C@@H]2C(C)(C)CCC[C@@]2(C)[C@@H]1CC/C(C)=C/COP(=O)(O)OP(=O)(O)O [ent-CPP]	–	combining NnTPS6, NnTPS5, and GGPPS, a new product (D1) can be identified as ent-kaurene
